Measurements taken from publication PMC11277489, “Novel Piperazine Derivatives of Vindoline as Anticancer Agents” (International Journal of Molecular Sciences, 2024).

Legend:
[1] = tested on: OVCAR-5; assay: NCI60 one-dose screen (10 μM), Ovarian Cancer; assay type: cell-based; details: Homo sapiens; 10 μM; OVCAR-5, Ovarian Cancer; read-out: Growth percent rate
[2] = tested on: HCC-2998; assay: NCI60 five-dose screen, Colon Cancer; assay type: cell-based; details: Homo sapiens; HCC-2998, Colon Cancer; five-dose screen; read-out: GI50
[3] = tested on: DU-145; assay: NCI60 one-dose screen (10 μM), Prostate Cancer; assay type: cell-based; details: Homo sapiens; 10 μM; DU-145, Prostate Cancer; read-out: Growth percent rate
[4] = tested on: EKVX; assay: NCI60 five-dose screen, Non-small Cell Lung Cancer; assay type: cell-based; details: Homo sapiens, Non-small Cell Lung Cancer, five-dose screen, read-out: GI50
[5] = tested on: RPMI-8226; assay: NCI60 five-dose screen, Leukemia; assay type: cell-based; details: Homo sapiens; RPMI-8226, Leukemia; five-dose screen; read-out: GI50
[6] = tested on: BT-549; assay: NCI60 one-dose screen (10 μM), Breast Cancer; assay type: cell-based; details: Homo sapiens; 10 μM; BT-549, Breast Cancer; read-out: Growth percent rate
[7] = tested on: UACC-62; assay: NCI60 one-dose screen (10 μM), Melanoma; assay type: cell-based; details: Homo sapiens; 10 μM; UACC-62, Melanoma; read-out: Growth percent rate
[8] = tested on: MDA-MB-231/ATCC; assay: NCI60 one-dose screen (10 μM), Breast Cancer; assay type: cell-based, human; details: Homo sapiens; 10 μM; MDA-MB-231/ATCC, Breast Cancer; read-out: Growth percent rate
[9] = tested on: NCI-H522; assay: NCI60 five-dose screen, Non-small Cell Lung Cancer; assay type: cell-based; details: Homo sapiens; NCI-H522, Non-small Cell Lung Cancer; five-dose screen; read-out: GI50
[10] = tested on: SF-268; assay: NCI60 five-dose screen, CNS Cancer; assay type: cell-based; details: Homo sapiens; SF-268, CNS Cancer; five-dose screen; read-out: GI50
[11] = tested on: SF-539; assay: NCI60 five-dose screen, CNS Cancer; assay type: cell-based; details: Homo sapiens; SF-539, CNS Cancer; five-dose screen; read-out: GI50
[12] = tested on: A498; assay: NCI60 five-dose screen, Renal Cancer; assay type: cell-based; details: Homo sapiens; A498, Renal Cancer; five-dose screen; read-out: GI50
[13] = tested on: NCI/ADR-RES; assay: NCI60 one-dose screen (10 μM), Ovarian Cancer; assay type: cell-based; details: Homo sapiens, 10 μM, Ovarian Cancer, read-out: Growth percent rate
[14] = tested on: MOLT-4; assay: NCI60 five-dose screen, Leukemia; assay type: cell-based; details: Homo sapiens; MOLT-4, Leukemia; five-dose screen; read-out: GI50
[15] = tested on: HL-60(TB); assay: NCI60 five-dose screen, Leukemia; assay type: cell-based; details: Homo sapiens; HL-60(TB), Leukemia; five-dose screen; read-out: GI50
[16] = tested on: OVCAR-3; assay: NCI60 one-dose screen (10 μM), Ovarian Cancer; assay type: cell-based; details: Homo sapiens; 10 μM; OVCAR-3, Ovarian Cancer; read-out: Growth percent rate
[17] = tested on: UACC-257; assay: NCI60 five-dose screen, Melanoma; assay type: cell-based; details: Homo sapiens; UACC-257, Melanoma; five-dose screen; read-out: GI50
[18] = tested on: SK-MEL-2; assay: NCI60 one-dose screen (10 μM), Melanoma; assay type: cell-based; details: Homo sapiens; 10 μM; SK-MEL-2, Melanoma; read-out: Growth percent rate
[19] = tested on: OVCAR-8; assay: NCI60 five-dose screen, Ovarian Cancer; assay type: cell-based; details: Homo sapiens; OVCAR-8, Ovarian Cancer; five-dose screen; read-out: GI50
[20] = tested on: HOP-62; assay: NCI60 five-dose screen, Non-small Cell Lung Cancer; assay type: cell-based; details: Homo sapiens; HOP-62, Non-small Cell Lung Cancer; five-dose screen; read-out: GI50
[21] = tested on: 786–0; assay: NCI60 five-dose screen, Renal Cancer; assay type: cell-based; details: Homo sapiens; 786–0, Renal Cancer; five-dose screen; read-out: GI50
[22] = tested on: MDA-MB-468; assay: NCI60 five-dose screen, Breast Cancer; assay type: cell-based; details: Homo sapiens; MDA-MB-468, Breast Cancer; five-dose screen; read-out: GI50
[23] = tested on: T-47D; assay: NCI60 one-dose screen (10 μM), Breast Cancer; assay type: cell-based; details: Homo sapiens, T47D; 10 μM; T-47D, Breast Cancer; read-out: Growth percent rate
[24] = tested on: MCF7; assay: NCI60 five-dose screen, Breast Cancer; assay type: cell-based; details: Homo sapiens; MCF7, Breast Cancer; five-dose screen; read-out: GI50
[25] = tested on: CCRF-CEM; assay: NCI60 one-dose screen (10 μM), Leukemia; assay type: cell-based; details: Homo sapiens, 10 μM, Leukemia, read-out: Growth percent rate
[26] = tested on: SK-OV-3; assay: NCI60 five-dose screen, Ovarian Cancer; assay type: cell-based; details: Homo sapiens; SK-OV-3, Ovarian Cancer; five-dose screen; read-out: GI50
[27] = tested on: HCT-15; assay: NCI60 five-dose screen, Colon Cancer; assay type: cell-based; details: Homo sapiens; HCT-15, Colon Cancer; five-dose screen; read-out: GI50
[28] = tested on: RXF 393; assay: NCI60 five-dose screen, Renal Cancer; assay type: cell-based; details: Homo sapiens, RXF 393, Renal Cancer
[29] = tested on: PC-3; assay: NCI60 one-dose screen (10 μM), Prostate Cancer; assay type: cell-based; details: Homo sapiens; 10 μM; PC-3, Prostate Cancer; read-out: Growth percent rate
[30] = tested on: UO-31; assay: NCI60 one-dose screen (10 μM), Renal Cancer; assay type: cell-based; details: Homo sapiens; 10 μM; UO-31, Renal Cancer; read-out: Growth percent rate
[31] = tested on: SK-OV-3; assay: NCI60 one-dose screen (10 μM), Ovarian Cancer; assay type: cell-based; details: Homo sapiens; 10 μM; SK-OV-3, Ovarian Cancer; read-out: Growth percent rate
[32] = tested on: NCI-H226; assay: NCI60 one-dose screen (10 μM), Non-small Cell Lung Cancer; assay type: cell-based; details: Homo sapiens; 10 μM; NCI-H226, Non-small Cell Lung Cancer; read-out: Growth percent rate
[33] = tested on: SR; assay: NCI60 one-dose screen (10 μM), Leukemia; assay type: cell-based; details: Homo sapiens, 10 μM, Leukemia, read-out: Growth percent rate
[34] = tested on: NCI-H23; assay: NCI60 five-dose screen, Non-small Cell Lung Cancer; assay type: cell-based; details: Homo sapiens; NCI-H23, Non-small Cell Lung Cancer; five-dose screen; read-out: GI50
[35] = tested on: SK-MEL-5; assay: NCI60 five-dose screen, Melanoma; assay type: cell-based; details: Homo sapiens; SK-MEL-5, Melanoma; five-dose screen; read-out: GI50
[36] = tested on: A549/ATCC; assay: NCI60 five-dose screen, Non-small Cell Lung Cancer; assay type: cell-based; details: Homo sapiens; A549/ATCC, Non-small Cell Lung Cancer; five-dose screen; read-out: GI50
[37] = tested on: KM12; assay: NCI60 one-dose screen (10 μM), Colon Cancer; assay type: cell-based, human; details: Homo sapiens; 10 μM; KM12, Colon Cancer; read-out: Growth percent rate
[38] = tested on: SNB-75; assay: NCI60 one-dose screen (10 μM), CNS Cancer; assay type: cell-based, human; details: Homo sapiens; 10 μM; SNB-75, CNS Cancer; read-out: Growth percent rate
[39] = tested on: OVCAR-5; assay: NCI60 five-dose screen, Ovarian Cancer; assay type: cell-based; details: Homo sapiens; OVCAR-5, Ovarian Cancer; five-dose screen; read-out: GI50
[40] = tested on: U251; assay: NCI60 five-dose screen, CNS Cancer; assay type: cell-based; details: Homo sapiens, U-251; U251, CNS Cancer; five-dose screen; read-out: GI50
[41] = tested on: M14; assay: NCI60 five-dose screen, Melanoma; assay type: cell-based; details: Homo sapiens; M14, Melanoma; five-dose screen; read-out: GI50
[42] = tested on: SF-295; assay: NCI60 five-dose screen, CNS Cancer; assay type: cell-based; details: Homo sapiens; SF-295, CNS Cancer; five-dose screen; read-out: GI50
[43] = tested on: MDA-MB-468; assay: NCI60 one-dose screen (10 μM), Breast Cancer; assay type: cell-based; details: Homo sapiens; 10 μM; MDA-MB-468, Breast Cancer; read-out: Growth percent rate
[44] = tested on: LOX IMVI; assay: NCI60 five-dose screen, Melanoma; assay type: cell-based; details: Homo sapiens, Melanoma, five-dose screen, read-out: GI50
[45] = tested on: HOP-92; assay: NCI60 one-dose screen (10 μM), Non-small Cell Lung Cancer; assay type: cell-based; details: Homo sapiens; 10 μM; HOP-92, Non-small Cell Lung Cancer; read-out: Growth percent rate
[46] = tested on: HT29; assay: NCI60 five-dose screen, Colon Cancer; assay type: cell-based; details: Homo sapiens, HT-29; HT29, Colon Cancer; five-dose screen; read-out: GI50

`CC[C@]12C=CCN3CC[C@@]4(c5ccc(OC)cc5N(C)[C@H]4[C@@](O)(C(=O)OC)[C@@H]1OC(=O)CCCN1CCN(c4ccc(C(F)(F)F)cc4)CC1)[C@@H]32` [Compound 22] was tested, and the activity at 10 µM [1] was -31.1%, the GI50 [2] was 1.82 µM and the activity at 10 µM [3] was -38.8%. For the same compound, the GI50 [4] was 3.09 µM, the GI50 [5] was 2.04 µM and the activity at 10 µM [6] was -69.1%. For the same compound, the activity at 10 µM [7] was -90.9%, the activity at 10 µM [8] was -67.4% and the GI50 [9] was 1.91 µM. It also gave a GI50 [10] of 3.63 µM, a GI50 [11] of 1.78 µM and a GI50 [12] of 3.72 µM. It also gave an activity at 10 µM [13] of -10.9%, a GI50 [14] of 1.95 µM and a GI50 [15] of 1.66 µM. For the same compound, the activity at 10 µM [16] was -71.5%, the GI50 [17] was 1.82 µM and the activity at 10 µM [18] was -93.9%. The GI50 [19] was 3.02 µM, the GI50 [20] was 3.02 µM and the GI50 [21] was 2.57 µM. It also gave a GI50 [22] of 1.38 µM, an activity at 10 µM [23] of -11.4% and a GI50 [24] of 2 µM. The activity at 10 µM [25] was 3.97%, the GI50 [26] was 3.72 µM and the GI50 [27] was 1.82 µM. The GI50 [28] was 1.55 µM, the activity at 10 µM [29] was -25.4% and the activity at 10 µM [30] was 2.06%. The activity at 10 µM [31] was 23.6%, the activity at 10 µM [32] was -50.7% and the activity at 10 µM [33] was 14.2%. The GI50 [34] was 4.57 µM, the GI50 [35] was 1.7 µM and the GI50 [36] was 2.95 µM. The activity at 10 µM [37] was -70%, the activity at 10 µM [38] was 2.76% and the GI50 [39] was 4.07 µM. The GI50 [40] was 2.24 µM, the GI50 [41] was 1.86 µM and the GI50 [42] was 1.95 µM. For the same compound, the activity at 10 µM [43] was -83.4%, the GI50 [44] was 1.7 µM and the activity at 10 µM [45] was -30.9%. For the same compound, the GI50 [46] was 1.74 µM.

Compound `CC[C@]12C=CCN3CC[C@@]4(c5ccc(OC)cc5N(C)[C@H]4[C@@](O)(C(=O)OC)[C@@H]1OC(=O)CCC(=O)N1CCN(Cc4ccc(C(F)(F)F)cc4)CC1)[C@@H]32` [Compound 29] has an activity at 10 µM [1] of 15.2%, a GI50 [2] of 12.9 µM and an activity at 10 µM [3] of 20.3%. The GI50 [4] was 7.59 µM, the GI50 [5] was 6.92 µM and the activity at 10 µM [6] was -54.5%. For the same compound, the activity at 10 µM [7] was -19.7%, the activity at 10 µM [8] was 3.02% and the GI50 [9] was 12.6 µM. It also gave a GI50 [10] of 5.75 µM, a GI50 [11] of 12.9 µM and a GI50 [12] of 12.3 µM. It also gave a GI50 [14] of 5.25 µM, a GI50 [15] of 12.9 µM and an activity at 10 µM [16] of 0.33%. It also gave a GI50 [17] of 11.5 µM, an activity at 10 µM [18] of -63.4% and a GI50 [19] of 12 µM. For the same compound, the GI50 [20] was 14.1 µM, the GI50 [21] was 12.3 µM and the GI50 [22] was 1.95 µM. The activity at 10 µM [23] was 24%, the GI50 [24] was 5.62 µM and the activity at 10 µM [25] was 3.8%. For the same compound, the GI50 [26] was 12.6 µM, the GI50 [27] was 10.2 µM and the GI50 [28] was 4.47 µM. For the same compound, the activity at 10 µM [29] was 2.13%, the activity at 10 µM [30] was 5.16% and the activity at 10 µM [31] was 12.4%. For the same compound, the activity at 10 µM [32] was 16.7%, the activity at 10 µM [33] was -48.3% and the GI50 [34] was 12 µM. For the same compound, the GI50 [35] was 3.89 µM, the GI50 [36] was 8.32 µM and the activity at 10 µM [37] was 3.78%. It also gave an activity at 10 µM [38] of 7.51%, a GI50 [39] of 14.5 µM and a GI50 [40] of 11.2 µM. It also gave a GI50 [41] of 8.13 µM, a GI50 [42] of 9.33 µM and an activity at 10 µM [43] of -20.5%. For the same compound, the GI50 [44] was 13.8 µM, the activity at 10 µM [45] was -22.6% and the GI50 [46] was 6.76 µM.
